Source: patent publication US20220305012A1, “L[…] TREATING SLEEP ISSUES” (EISAI R&D MANAGEMENT CO., LTD., priority 2019, published 2022)

Legend:
Assay type in all cases: in vivo, human
[1] = tested on: Subjects Having Insomnia Disorder; experiment: Example 2: wake after sleep onset (WASO), polysomnography
Procedure: (§1) In some embodiments, a sleep parameter is determined objectively using polysomnography. Polysomnography is the monitoring of multiple electrophysiological parameters during sleep and generally includes measurement of EEG activity, electro-oculographic activity and electromyographic activity, as well as other measurements.
WASO—wake after sleep onset: minutes of wake from the onset of persistent sleep until lights on.
(§2) The treatment period lasted for 31 days. Subjects were randomized in a double-blind manner and received placebo, a tablet containing 5 mg of lemborexant, a tablet containing 10 mg of lemborexant, or a tablet containing 6.25 mg of zolpidem ER.
(§3) Within 5 minutes of the subject's mean habitual bedtime, study drug was administered and an overnight polysomnogram recording was initiated. At completion of the recording the following morning (Day 2), postural stability and cognitive performance were assessed. On the Day 2 evening, subjects returned to the clinic and a blood sample was collected before administering study drug, and then study drug was administered within 5 minutes of the subject's mean habitual bedtime. Again, a polysomnogram recording was initiated. The next morning (Day 3), postural stability and cognitive performance were assessed. A blood sample was also collected.
(§4) On Day 29, subjects returned to the clinic. Study drug was administered within 5 minutes of the subject's mean habitual bedtime and a polysomnogram recording was conducted. On the following morning (Day 30), postural stability and cognitive performance were assessed. After 1.5 hours of waketime, subjects rated their morning sleepiness level.
(§5) On the evening of Day 30, subjects returned to the clinic. A pre-dose blood sample was collected and study drug was again administered within 5 minutes of the subject's mean habitual bedtime. A polysomnogram recording was initiated. The following morning (Day 31), postural stability and cognitive performance were assessed and a blood sample was obtained. The ISI, FSS, EQ-5D-3L and PGI-Insomnia were administered. Blood and urine samples were collected for routine safety assessment. An electrocardiogram was performed, and vital signs and weight were assessed. The eC-SSRS was then administered to the subject. At 1.5 hours after waketime, subjects rated their morning sleepiness level.
Another key secondary endpoint was to determine the change from baseline for mean wake after sleep onset on Days 29 and 30 after administration of 5 mg or 10 mg of lemborexant, compared to placebo.

[2] = tested on: Subjects Having Insomnia Disorder; experiment: Example 2: subjective sleep efficiency (sSE), sleep diary
From the text: As used herein, the term “subjective sleep efficiency”, abbreviated as “sSE”, means the proportion of sTST per subjective time spent in bed, calculated as the interval from the time the subject reports attempting to sleep until the time the subject stopped trying to sleep for the night (operationalized as the time the subject got out of bed for the day), and time spent asleep derived from subjective time spent in bed minus sWASO. As used herein, an “improvement of sleep efficiency in Subjective Sleep Efficiency (sSE)” means an increase in sleep efficiency in Subjective Sleep Efficiency (sSE).
(§6) In some embodiments, sleep diaries were used to assess sleep parameters reported by subjects (i.e., subjective assessments) including subjective sleep onset latency (sSOL), subjective sleep efficiency (sSE), subjective WASO (sWASO), and subjective total sleep time (sTST). Subjects were instructed to complete the Sleep Diary developed based on the consensus Sleep Diary as described in Carney et al., “The consensus sleep diary: standardizing prospective sleep self-monitoring,” Sleep 2012; 35(2):287-302. In some embodiments, the Sleep Diary was used to assess the subject's global perception of quality of sleep on the previous night with the following question: “How would you rate the quality of your sleep last night?” Subjects rated the quality of their sleep on a scale from 1 to 9, with 1 being extremely poor and 9 being extremely good. In some embodiments, the Sleep Diary was used to assess subjective ratings of morning sleepiness with the following question: “How alert/sleepy do you feel this morning?” Subjects rated their sleepiness/alertness level on a Likert scale from 1 to 9, with 1 being extremely sleepy and 9 being extremely alert.
sSE—subjective sleep efficiency: proportion of sTST per subjective time spent in bed, calculated as the interval from the time the subject reports attempting to sleep until the time the subject stopped trying to sleep for the night (operationalized as the time the subject got out of bed for the day), and time spent asleep derived from subjective time in bed minus sWASO.
as §2
(§7) Once home, the subject ingested study drug each night prior to bedtime and completed their sleep diary within 1 hour of waketime.

[3] = tested on: Subjects Having Insomnia Disorder; experiment: Example 2: subjective sleep onset latency (sSOL), sleep diary
From the text: As used herein, the term “subjective sleep onset latency”, abbreviated as “sSOL”, means the estimated number of minutes from the time that the subject attempted to sleep until sleep onset. In some embodiments, sSOL is derived from data entered in a subject's Sleep Diary.
as §6
sSOL—subjective sleep onset latency: estimated minutes from the time that the subject attempted to sleep until sleep onset.
as §2, §7

[4] = tested on: Subjects Having Insomnia Disorder; experiment: Example 2: wake after sleep onset in the second half of the night (WASO2H), polysomnography
Procedure: as §1
WASO2H: wake after sleep onset in the second half of the night: minutes of wake during the interval from 240 minutes after lights off until lights on.
as §2, §3, §4, §5
Another key secondary endpoint was to determine the change from baseline for mean wake after sleep onset in the second half of the night on Days 29 and 30 after administration of 5 mg or 10 mg of lemborexant compared to administration of 6.25 mg of zolpidem ER.

[5] = tested on: Subjects Having Insomnia Disorder; experiment: Example 2: return to sleep latency
[6] = First 7 Nights of Treatment, Lemborexant 5 mg
[7] = First 7 Nights of Treatment, Lemborexant 10 mg
[8] = Last 7 Nights of Treatment, Lemborexant 5 mg
[9] = Last 7 Nights of Treatment, Lemborexant 10 mg
[10] = 5 mg, First 7 Nights of Treatment
[11] = 5 mg, Last 7 Nights of Treatment
[12] = 10 mg, First 7 Nights of Treatment
[13] = 10 mg, Last 7 Nights of Treatment

Cc1ncc(OC[C@@]2(c3cccc(F)c3)C[C@H]2C(=O)Nc2ccc(F)cn2)c(C)n1 [Lemborexant, (1R,2S)-2-(((2,4-dimethylpyrimidin-5-yl)oxy)methyl)-2-(3-fluorophenyl)-N-(5-fluoropyridin-2-yl)cyclopropanecarboxamide]
Wake After Sleep Onset, Change from Study Baseline, Mean (SD) ([1]; Days 1/2, Lemborexant 5 mg): −49.96 (39.578)
Wake After Sleep Onset, Change from Study Baseline, Median ([1]; Days 1/2, Lemborexant 5 mg): −46.75
Wake After Sleep Onset, Mean (SD) ([1]; Days 1/2, Lemborexant 5 mg): 63.48 (31.484)
Wake After Sleep Onset, Median ([1]; Days 1/2, Lemborexant 5 mg): 58.38
Wake After Sleep Onset, Change from Study Baseline, Mean (SD) ([1]; Days 1/2, Lemborexant 10 mg): −59.59
Wake After Sleep Onset, Change from Study Baseline, Median ([1]; Days 1/2, Lemborexant 10 mg): −54.50
Wake After Sleep Onset, Mean (SD) ([1]; Days 1/2, Lemborexant 10 mg): 55.23
Wake After Sleep Onset, Median ([1]; Days 1/2, Lemborexant 10 mg): 48.75
Wake After Sleep Onset, Change from Study Baseline, LSM treatment difference: Lemborexant-Zolpidem ([1]; Days 29/30, Lemborexant 5 mg): −7.72 (2.876)
Wake After Sleep Onset, Change from Study Baseline, Mean (SD) ([1]; Days 29/30, Lemborexant 5 mg): −43.89 (39.264)
Wake After Sleep Onset, Change from Study Baseline, Median ([1]; Days 29/30, Lemborexant 5 mg): −39.50
Wake After Sleep Onset, Mean (SD) ([1]; Days 29/30, Lemborexant 5 mg): 69.10 (34.533)
Wake After Sleep Onset, Median ([1]; Days 29/30, Lemborexant 5 mg): 62.63
Wake After Sleep Onset, Change from Study Baseline, LSM treatment difference: Lemborexant-Zolpidem ([1]; Days 29/30, Lemborexant 10 mg): −9.10
Wake After Sleep Onset, Change from Study Baseline, Mean (SD) ([1]; Days 29/30, Lemborexant 10 mg): −46.43
Wake After Sleep Onset, Change from Study Baseline, Median ([1]; Days 29/30, Lemborexant 10 mg): −46.50
Wake After Sleep Onset, Mean (SD) ([1]; Days 29/30, Lemborexant 10 mg): 68.60
Wake After Sleep Onset, Median ([1]; Days 29/30, Lemborexant 10 mg): 62.50
mean wake after sleep onset ([1]; all lemborexant treatment groups, relative to baseline, placebo and zolpidem treatment groups (Table 15)): reduced
mean subjective sleep efficiency ([2]; 10 mg, relative to baseline, placebo and zolpidem treatment groups (Table 19)): increased
Subjective Sleep Efficiency, Change from Study Baseline, Mean (SD) [2, 6]: 10.56 (12.296)
Subjective Sleep Efficiency, Mean (SD) [2, 6]: 65.96 (18.203)
Subjective Sleep Efficiency, Model-adjusted change from baseline [2, 6]: 10.74
Subjective Sleep Efficiency, Change from Study Baseline, Mean (SD) [2, 7]: 13.97 (14.188)
Subjective Sleep Efficiency, Mean (SD) [2, 7]: 68.10 (18.356)
Subjective Sleep Efficiency, Model-adjusted change from baseline [2, 7]: 13.81
Subjective Sleep Efficiency, Change from Study Baseline, Mean (SD) [2, 8]: 12.92 (13.884)
Subjective Sleep Efficiency, Mean (SD) [2, 8]: 68.19 (19.251)
Subjective Sleep Efficiency, Model-adjusted change from baseline [2, 8]: 13.29
Subjective Sleep Efficiency, Change from Study Baseline, Mean (SD) [2, 9]: 16.12 (16.3000)
Subjective Sleep Efficiency, Mean (SD) [2, 9]: 69.92 (19.098)
Subjective Sleep Efficiency, Model-adjusted change from baseline [2, 9]: 15.87
sSOL Change from Study Baseline, Mean (SD) [3, 10]: −22.54 (32.812) minutes
sSOL Change from Study Baseline, Median [3, 10]: -14.86 min
sSOL, Mean (SD) [3, 10]: 42.39 (28.075) minutes
sSOL, Median [3, 10]: 29.64 min
sSOL Change from Study Baseline, Mean (SD) [3, 11]: −25.20 (34.854) minutes
sSOL Change from Study Baseline, Median [3, 11]: -18.54 min
sSOL, Mean (SD) [3, 11]: 38.80 (28.028) minutes
sSOL, Median [3, 11]: 30.36 min
sSOL, Mean (SD) ([3]; 5 mg, Study Baseline): 65.79 (43.530) minutes
sSOL, Median ([3]; 5 mg, Study Baseline): 58.57 min
sSOL Change from Study Baseline, Mean (SD) [3, 12]: −21.88 (29.269) minutes
sSOL Change from Study Baseline, Median [3, 12]: -15.00 min
sSOL, Mean (SD) [3, 12]: 38.64 (32.092) minutes
sSOL Change from Study Baseline, Mean (SD) [3, 13]: −24.79 (34.068) minutes
sSOL Change from Study Baseline, Median [3, 13]: -17.14 min
sSOL, Mean (SD) [3, 13]: 36.51 (31.059) minutes
sSOL, Median [3, 13]: 27.50 min
sSOL, Mean (SD) ([3]; 10 mg, Study Baseline): 60.88 (42.514) minutes
sSOL, Median ([3]; 10 mg, Study Baseline): 53.57 min
mean subjective sleep onset latency ([3]; all lemborexant treatment groups, relative to baseline, placebo and zolpidem treatment groups (Table 18)): reduced
Wake After Sleep Onset in the Second Half of the Night, Change from Study Baseline, Mean (SD) ([4]; Days 1/2, Lemborexant 5 mg): −30.28 (32.056)
Wake After Sleep Onset in the Second Half of the Night, Change from Study Baseline, Median ([4]; Days 1/2, Lemborexant 5 mg): −27.63
Wake After Sleep Onset in the Second Half of the Night, Mean (SD) ([4]; Days 1/2, Lemborexant 5 mg): 46.32 (25.600)
Wake After Sleep Onset in the Second Half of the Night, Median ([4]; Days 1/2, Lemborexant 5 mg): 40.88
Wake After Sleep Onset in the Second Half of the Night, Change from Study Baseline, Mean (SD) ([4]; Days 1/2, Lemborexant 10 mg): −37.10 (30.815)
Wake After Sleep Onset in the Second Half of the Night, Change from Study Baseline, Median ([4]; Days 1/2, Lemborexant 10 mg): −32.00
Wake After Sleep Onset in the Second Half of the Night, Mean (SD) ([4]; Days 1/2, Lemborexant 10 mg): 39.78 (23.709)
Wake After Sleep Onset in the Second Half of the Night, Median ([4]; Days 1/2, Lemborexant 10 mg): 34.00
Wake After Sleep Onset in the Second Half of the Night, Change from Study Baseline, LSM treatment difference: Lemborexant-Zolpidem ([4]; Days 29/30, Lemborexant 5 mg): −6.65 (2.298)
Wake After Sleep Onset in the Second Half of the Night, Change from Study Baseline, Mean (SD) ([4]; Days 29/30, Lemborexant 5 mg): −27.19 (33.047)
Wake After Sleep Onset in the Second Half of the Night, Change from Study Baseline, Median ([4]; Days 29/30, Lemborexant 5 mg): −25.63
Wake After Sleep Onset in the Second Half of the Night, Mean (SD) ([4]; Days 29/30, Lemborexant 5 mg): 49.11 (28.179)
Wake After Sleep Onset in the Second Half of the Night, Median ([4]; Days 29/30, Lemborexant 5 mg): 42.13
Wake After Sleep Onset in the Second Half of the Night, Change from Study Baseline, LSM treatment difference: Lemborexant-Zolpidem ([4]; Days 29/30, Lemborexant 10 mg): −8.00 (2.309)
Wake After Sleep Onset in the Second Half of the Night, Change from Study Baseline, Median ([4]; Days 29/30, Lemborexant 10 mg): −27.25
Wake After Sleep Onset in the Second Half of the Night, Mean (SD) ([4]; Days 29/30, Lemborexant 10 mg): 48.15 (27.844)
Wake After Sleep Onset in the Second Half of the Night, Median ([4]; Days 29/30, Lemborexant 10 mg): 41.75
mean wake after sleep onset in the second half of the night ([4]; all lemborexant treatment groups, relative to baseline, placebo and zolpidem treatment groups (Table 16)): reduced
Return to Sleep Latency, LSM - Difference vs. Placebo ([5]; Lemborexant 5 mg): -22.5 min
Return to Sleep Latency, Mean (SD) change from baseline ([5]; Lemborexant 5 mg): -22.8 min
Return to Sleep Latency, Postdose ([5]; Lemborexant 5 mg): 18.1 min
Return to Sleep Latency, LSM - Difference vs. Placebo ([5]; Lemborexant 10 mg): -28.7 min
Return to Sleep Latency, Mean (SD) change from baseline ([5]; Lemborexant 10 mg): -28.7 min
Return to Sleep Latency, Postdose ([5]; Lemborexant 10 mg): 12.1 min
return to sleep latency ([5]; both doses, vs placebo and zolpidem (Table 28)): greater reduction in return to sleep latency than treatment with placebo and zolpidem
